Reference: paper PMC7210949, “Flexibility of intrinsically disordered degrons in AUX/IAA proteins reinforces auxin co-receptor assemblies” (Nature Communications, 2020)

Columns and labels:
Assay in all cases: [3H]IAA saturation radioligand binding
TIR1·IAA (7-7-7-7-12) = target: T1, TIR1·IAA (7-7-7-7-12); set-up: species or system Arabidopsis thaliana; conditions: labelled compound; 0.01 µM ASK1·TIR1, 0.3 µM GST-AUX/IAA chimera, on ice 1 h; one-site fit; n = 2
T1 construct: IAA7 with its PB1 domain replaced by that of IAA12 (one seamless polypeptide: DI, linker, core degron, degron tail from IAA7); GST fusion from E. coli; with SKP1-like protein 1A

TIR1·IAA (7-7-7-12-7) = target: T2, TIR1·IAA (7-7-7-12-7); set-up: species or system Arabidopsis thaliana; conditions: labelled compound; 0.01 µM ASK1·TIR1, 0.3 µM GST-AUX/IAA chimera, on ice 1 h; one-site fit; n = 2
T2 construct: IAA7 with its degron tail replaced by that of IAA12 (one seamless polypeptide: DI, linker, core degron, PB1 from IAA7); GST fusion from E. coli; with SKP1-like protein 1A

TIR1·IAA (12-12-12-12-7) = target: T3, TIR1·IAA (12-12-12-12-7); set-up: species or system Arabidopsis thaliana; conditions: labelled compound; 0.01 µM ASK1·TIR1, 0.3 µM GST-AUX/IAA chimera, on ice 1 h; one-site fit; n = 3
T3 construct: IAA12 with its PB1 domain replaced by that of IAA7 (one seamless polypeptide: DI, linker, core degron, degron tail from IAA12); GST fusion from E. coli; with SKP1-like protein 1A

ASK1·TIR1·IAA7 = target: T4, ASK1·TIR1·IAA7 (Arabidopsis thaliana, UniProt Q38825+Q570C0)
T4 construct: full-length IAA7 as GST fusion from E. coli, GST kept; with SKP1-like protein 1A
T4 sequence (Q570C0 1-594): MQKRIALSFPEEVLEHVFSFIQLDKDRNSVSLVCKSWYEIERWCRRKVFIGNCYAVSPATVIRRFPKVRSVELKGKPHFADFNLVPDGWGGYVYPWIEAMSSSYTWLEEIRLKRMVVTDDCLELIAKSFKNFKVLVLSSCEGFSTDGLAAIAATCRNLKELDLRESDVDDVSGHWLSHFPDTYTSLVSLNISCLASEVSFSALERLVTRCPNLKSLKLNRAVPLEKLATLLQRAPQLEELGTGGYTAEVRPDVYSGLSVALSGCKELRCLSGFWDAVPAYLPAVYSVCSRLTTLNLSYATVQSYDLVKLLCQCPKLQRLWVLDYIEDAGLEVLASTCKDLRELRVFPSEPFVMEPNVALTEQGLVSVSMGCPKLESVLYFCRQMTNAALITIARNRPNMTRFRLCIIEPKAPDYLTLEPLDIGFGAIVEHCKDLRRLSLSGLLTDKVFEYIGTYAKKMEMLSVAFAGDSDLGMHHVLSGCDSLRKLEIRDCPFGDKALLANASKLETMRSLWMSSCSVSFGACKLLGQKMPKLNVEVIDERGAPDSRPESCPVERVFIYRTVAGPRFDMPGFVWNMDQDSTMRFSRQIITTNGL
T4 sequence (Q38825 1-243): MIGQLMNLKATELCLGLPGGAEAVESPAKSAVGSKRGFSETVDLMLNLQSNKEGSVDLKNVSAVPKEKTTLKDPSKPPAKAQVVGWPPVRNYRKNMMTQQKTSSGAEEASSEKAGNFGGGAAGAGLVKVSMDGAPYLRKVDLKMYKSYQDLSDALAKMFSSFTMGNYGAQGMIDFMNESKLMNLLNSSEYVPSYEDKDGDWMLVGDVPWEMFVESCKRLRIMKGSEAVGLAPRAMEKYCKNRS
T4 sequence (Q39255 1-160 partner): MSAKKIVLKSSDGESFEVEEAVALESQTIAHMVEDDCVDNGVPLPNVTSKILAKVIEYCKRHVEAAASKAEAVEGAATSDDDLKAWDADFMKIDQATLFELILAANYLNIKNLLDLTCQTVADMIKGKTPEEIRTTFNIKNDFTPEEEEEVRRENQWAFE

ASK1·TIR1·IAA12 = target: T5, ASK1·TIR1·IAA12 (Arabidopsis thaliana, UniProt Q38830+Q570C0)
T5 construct: full-length IAA12 as GST fusion from E. coli, GST kept; with SKP1-like protein 1A
T5 sequence (Q570C0 1-594): T4 sequence (Q570C0 1-594)
T5 sequence (Q38830 1-239): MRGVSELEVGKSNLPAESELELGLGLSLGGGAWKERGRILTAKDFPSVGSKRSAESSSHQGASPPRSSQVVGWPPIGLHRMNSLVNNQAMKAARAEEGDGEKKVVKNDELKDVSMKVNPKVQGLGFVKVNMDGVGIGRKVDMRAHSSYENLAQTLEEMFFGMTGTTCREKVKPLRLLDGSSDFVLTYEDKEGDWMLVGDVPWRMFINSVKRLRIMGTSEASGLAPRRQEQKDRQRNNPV
T5 sequence (Q39255 1-160 partner): T4 sequence (Q39255 1-160 partner)

TIR1·IAA (12-12-12-7-12) = target: T6, TIR1·IAA (12-12-12-7-12); set-up: species or system Arabidopsis thaliana; conditions: labelled compound; 0.01 µM ASK1·TIR1, 0.3 µM GST-AUX/IAA chimera, on ice 1 h; one-site fit; n = 3
T6 construct: IAA12 with its degron tail replaced by that of IAA7 (one seamless polypeptide: DI, linker, core degron, PB1 from IAA12); GST fusion from E. coli; with SKP1-like protein 1A

O=C(O)Cc1c[nH]c2ccccc12 [[3H]IAA]
Kd (TIR1·IAA (7-7-7-7-12)): ~43 nM | Kd (TIR1·IAA (7-7-7-12-7)): ~57 nM | Kd (TIR1·IAA (12-12-12-12-7)): ~133 nM | Kd (ASK1·TIR1·IAA7): ~20 nM | Kd (ASK1·TIR1·IAA12): ~226 nM | Kd (TIR1·IAA (12-12-12-7-12)): ~79 nM
